According to patent US20220079909A1, “Food Supplement For Improving Sports Performance” (NUTRIBAM BV, priority 2019, published 2022):

System: male subjects
Assay: Synergetic efficiency of sulphoraphane and curcumin in four groups: training diary, HRV, RHR (Example 4)
Assay type: in vivo, human
Settings: 5-day period; for muscle pain and fatigue during the day (training diary): oral daily dose, compared to the negative control (Group nC, Gatorade powder); for HRV and RHR indices (overtraining): compared to the negative control (Group nC)
Protocol: The synergetic efficiency of a composition comprising both sulphoraphane and curcumin, was analysed. This analysis was realized, for monitoring the performances and recuperation of subjects, after doing a daily physical activity. The monitoring was done by means of a training diary which had to be completed three times a day, as well as by measuring the 'heart rate variability' (HRV), and the 'rest hear rate' (RHR) of these subjects. The HRV was analysed under controlled laboratory circumstances, before and after doing the prescribed daily physical activity. Analogously, the RHR was analysed under controlled laboratory circumstances, before and after doing the prescribed daily physical activity. The training diary was made up of a questionnaire, which needed to be completed by means of a scale of five (scale of […]). Questions were asked about possible muscle pain of the subjects, but also for example their energy level during the different moments of the day. 37 male subjects were selected to take part in the experiment. Their physical characteristics were as follows (average and SD): age 27.6 SD:1.6 years; weight 79.3 SD:2.1 kg; length 184 SD:3 cm. The subjects were divided into 4 groups: a group receiving only curcumin (Group C, n=10) (daily dose of 50 mg), a group receiving only sulphoraphane (Group S, n=10) (daily dose 25 mg), a group receiving both curcumin and sulphoraphane (Group C+S, n=10) (the same concentrations as the controls), and finally, a negative control was included in the experiment, it comprises a group receiving a similar dose of placebo, thereto Gatorade powder was used (Group nC, n=7). Each subject was asked to take a prescribed daily dose for five successive days. Each dose was dissolved in hot water. During this period, the subjects also had to follow a similar protein diet. The whole experiment was divided into 4 time periods, here, the different groups were tested successively. Between the different time periods, a two-week period was provided in which no experiment was carried out. The different compositions were administered orally every day in the form of a powder or dispersed in a drink. The daily dose of this powder for Group C comprised […] and 950 mg of Gatorade powder. The daily dose of this powder for Group S comprised […] and 950 mg of Gatorade powder. The daily dose of this powder for Group C+S comprised 25 mg of sulphoraphane, 50 mg of curcumin and 950 mg of Gatorade powder. The daily dose of this powder for Group nC comprised 1000 mg of Gatorade powder.

Row | Compound | muscle pain and fatigue during the day (training diary) | HRV and RHR indices (overtraining)
1 | COc1cc(/C=C/C(=O)CC(=O)/C=C/c2ccc(O)c(OC)c2)ccc1O [Group C, curcumin] | less muscle pain and fatigue | will probably overtrain less
2 | C[S+]([O-])CCCCN=C=S (stereo not shown) [Group S, 1-isothiocyanato-4-methyl sulfinyl butane] | less muscle pain and fatigue | will probably overtrain less
